{"source": "ChEMBL document CHEMBL1201862", "about": "“PubChem BioAssay data set” (2004)", "test_in_all_cases": "NCI-60 cell line screen, 48 h", "key": {"A549": {"test_system": "A549"}, "ACHN": {"test_system": "ACHN"}, "CAKI-1": {"test_system": "CAKI-1"}, "HCT-15": {"test_system": "HCT-15"}, "HT-29": {"test_system": "HT-29"}, "MDA-N": {"test_system": "MDA-N"}, "NCI-H226": {"test_system": "NCI-H226"}, "NCI-H23": {"test_system": "NCI-H23"}, "NCI/ADR-RES": {"test_system": "NCI/ADR-RES"}, "OVCAR-5": {"test_system": "OVCAR-5"}, "OVCAR-8": {"test_system": "OVCAR-8"}, "PC-3": {"test_system": "PC-3"}, "RPMI-8226": {"test_system": "RPMI-8226"}, "SK-MEL-2": {"test_system": "SK-MEL-2"}, "SK-MEL-5": {"test_system": "SK-MEL-5"}, "SK-OV-3": {"test_system": "SK-OV-3"}, "SNB-19": {"test_system": "SNB-19"}, "UACC-257": {"test_system": "UACC-257"}, "UACC-62": {"test_system": "UACC-62"}}, "note": "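Grown in 96-well plates, cells were treated for 48 hours with each compound at five concentrations. Insufficient inhibition: endpoint recorded as highest concentration tested. At the GI50, growth is halved.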 Active and inactive are the calls of the source. Rule as the data show it: active = GI50 up to about 1.1 µM and inactive = higher."}
{"compound": "Cc1cnc2c(c1)C(=O)N(c1ccc(Br)cc1)S2(=O)=O", "values": [{"measurement": "GI50", "setting": "A549", "value": "> 100 µM (inactive)"}, {"measurement": "GI50", "setting": "ACHN", "value": "> 100 µM (inactive)"}, {"measurement": "GI50", "setting": "CAKI-1", "value": "> 100 µM (inactive)"}, {"measurement": "GI50", "setting": "HCT-15", "value": "> 100", "unit": "µM"}, {"measurement": "GI50", "setting": "HT-29", "value": "> 100 µM (inactive)"}, {"measurement": "GI50", "setting": "MDA-N", "value": "> 100 µM (inactive)"}, {"measurement": "GI50", "setting": "NCI-H226", "value": "78 µM (inactive)"}, {"measurement": "GI50", "setting": "NCI-H23", "value": "> 100 µM (inactive)"}, {"measurement": "GI50", "setting": "NCI/ADR-RES", "value": "> 100 µM (inactive)"}, {"measurement": "GI50", "setting": "OVCAR-5", "value": "> 100 µM (inactive)"}, {"measurement": "GI50", "setting": "OVCAR-8", "value": "> 100 µM (inactive)"}, {"measurement": "GI50", "setting": "PC-3", "value": "> 100 µM (inactive)"}, {"measurement": "GI50", "setting": "RPMI-8226", "value": "> 100 µM (inactive)"}, {"measurement": "GI50", "setting": "SK-MEL-2", "value": "> 100 µM (inactive)"}, {"measurement": "GI50", "setting": "SK-MEL-5", "value": "> 100 µM (inactive)"}, {"measurement": "GI50", "setting": "SK-OV-3", "value": "> 100 µM (inactive)"}, {"measurement": "GI50", "setting": "SNB-19", "value": "> 100 µM (inactive)"}, {"measurement": "GI50", "setting": "UACC-257", "value": "> 100 µM (inactive)"}, {"measurement": "GI50", "setting": "UACC-62", "value": "> 100 µM (inactive)"}]}
{"compound": "CC(=O)Nc1ccc(OC2=CCN(C)CC2)cc1", "values": [{"measurement": "GI50", "setting": "A549", "value": "> 100 µM (inactive)"}, {"measurement": "GI50", "setting": "ACHN", "value": "> 100 µM (inactive)"}, {"measurement": "GI50", "setting": "CAKI-1", "value": "> 100 µM (inactive)"}, {"measurement": "GI50", "setting": "HCT-15", "value": "> 100", "unit": "µM"}, {"measurement": "GI50", "setting": "HT-29", "value": "> 100 µM (inactive)"}, {"measurement": "GI50", "setting": "MDA-N", "value": "> 100 µM (inactive)"}, {"measurement": "GI50", "setting": "NCI-H226", "value": "> 100 µM (inactive)"}, {"measurement": "GI50", "setting": "NCI-H23", "value": "> 100 µM (inactive)"}, {"measurement": "GI50", "setting": "NCI/ADR-RES", "value": "> 100 µM (inactive)"}, {"measurement": "GI50", "setting": "OVCAR-5", "value": "> 100 µM (inactive)"}, {"measurement": "GI50", "setting": "OVCAR-8", "value": "> 100 µM (inactive)"}, {"measurement": "GI50", "setting": "PC-3", "value": "> 100 µM (inactive)"}, {"measurement": "GI50", "setting": "RPMI-8226", "value": "> 100 µM (inactive)"}, {"measurement": "GI50", "setting": "SK-MEL-2", "value": "> 100 µM (inactive)"}, {"measurement": "GI50", "setting": "SK-MEL-5", "value": "> 100 µM (inactive)"}, {"measurement": "GI50", "setting": "SK-OV-3", "value": "> 100 µM (inactive)"}, {"measurement": "GI50", "setting": "SNB-19", "value": "> 100 µM (inactive)"}, {"measurement": "GI50", "setting": "UACC-257", "value": "> 100 µM (inactive)"}, {"measurement": "GI50", "setting": "UACC-62", "value": "> 100 µM (inactive)"}]}
{"compound": "CCCCCCc1ccc(CCCCCCCC(=O)O)o1", "values": [{"measurement": "GI50", "setting": "A549", "value": "50 µM (inactive)"}, {"measurement": "GI50", "setting": "ACHN", "value": "62.4 µM (inactive)"}, {"measurement": "GI50", "setting": "CAKI-1", "value": "> 100 µM (inactive)"}, {"measurement": "GI50", "setting": "HCT-15", "value": 61.5, "unit": "µM"}, {"measurement": "GI50", "setting": "HT-29", "value": "46.2 µM (inactive)"}, {"measurement": "GI50", "setting": "MDA-N", "value": "> 100 µM (inactive)"}, {"measurement": "GI50", "setting": "NCI-H226", "value": "94 µM (inactive)"}, {"measurement": "GI50", "setting": "NCI-H23", "value": "> 100 µM (inactive)"}, {"measurement": "GI50", "setting": "NCI/ADR-RES", "value": "> 100 µM (inactive)"}, {"measurement": "GI50", "setting": "OVCAR-5", "value": "> 100 µM (inactive)"}, {"measurement": "GI50", "setting": "OVCAR-8", "value": "> 100 µM (inactive)"}, {"measurement": "GI50", "setting": "PC-3", "value": "> 100 µM (inactive)"}, {"measurement": "GI50", "setting": "RPMI-8226", "value": "39.6 µM (inactive)"}, {"measurement": "GI50", "setting": "SK-MEL-2", "value": "> 100 µM (inactive)"}, {"measurement": "GI50", "setting": "SK-MEL-5", "value": "> 100 µM (inactive)"}, {"measurement": "GI50", "setting": "SK-OV-3", "value": "> 100 µM (inactive)"}, {"measurement": "GI50", "setting": "SNB-19", "value": "> 100 µM (inactive)"}, {"measurement": "GI50", "setting": "UACC-257", "value": "> 100 µM (inactive)"}]}
{"compound": "NC(=O)NC(=O)c1cccc(CNc2ccc(C(=O)N[C@@H](CCC(=O)O)C(=O)O)cc2)n1", "values": [{"measurement": "GI50", "setting": "A549", "value": "> 100 µM (inactive)"}, {"measurement": "GI50", "setting": "ACHN", "value": "> 100 µM (inactive)"}, {"measurement": "GI50", "setting": "CAKI-1", "value": "> 100 µM (inactive)"}, {"measurement": "GI50", "setting": "HCT-15", "value": "> 100", "unit": "µM"}, {"measurement": "GI50", "setting": "HT-29", "value": "> 100 µM (inactive)"}, {"measurement": "GI50", "setting": "MDA-N", "value": "> 100 µM (inactive)"}, {"measurement": "GI50", "setting": "NCI-H226", "value": "> 100 µM (inactive)"}, {"measurement": "GI50", "setting": "NCI-H23", "value": "> 100 µM (inactive)"}, {"measurement": "GI50", "setting": "NCI/ADR-RES", "value": "> 100 µM (inactive)"}, {"measurement": "GI50", "setting": "OVCAR-5", "value": "> 100 µM (inactive)"}, {"measurement": "GI50", "setting": "OVCAR-8", "value": "> 100 µM (inactive)"}, {"measurement": "GI50", "setting": "PC-3", "value": "> 100 µM (inactive)"}, {"measurement": "GI50", "setting": "RPMI-8226", "value": "> 100 µM (inactive)"}, {"measurement": "GI50", "setting": "SK-MEL-2", "value": "> 100 µM (inactive)"}, {"measurement": "GI50", "setting": "SK-MEL-5", "value": "> 100 µM (inactive)"}, {"measurement": "GI50", "setting": "SK-OV-3", "value": "> 100 µM (inactive)"}, {"measurement": "GI50", "setting": "UACC-257", "value": "> 100 µM (inactive)"}, {"measurement": "GI50", "setting": "UACC-62", "value": "4 µM (inactive)"}]}
{"compound": "CC(C)NC(=O)OCCN=C1c2ccccc2CCc2ccccc21", "values": [{"measurement": "GI50", "setting": "A549", "value": "22.8 µM (inactive)"}, {"measurement": "GI50", "setting": "ACHN", "value": "27.2 µM (inactive)"}, {"measurement": "GI50", "setting": "CAKI-1", "value": "24.7 µM (inactive)"}, {"measurement": "GI50", "setting": "HCT-15", "value": 24.7, "unit": "µM"}, {"measurement": "GI50", "setting": "HT-29", "value": "21.4 µM (inactive)"}, {"measurement": "GI50", "setting": "MDA-N", "value": "18.7 µM (inactive)"}, {"measurement": "GI50", "setting": "NCI-H226", "value": "25.6 µM (inactive)"}, {"measurement": "GI50", "setting": "NCI-H23", "value": "54.3 µM (inactive)"}, {"measurement": "GI50", "setting": "NCI/ADR-RES", "value": "30.3 µM (inactive)"}, {"measurement": "GI50", "setting": "OVCAR-5", "value": "29.4 µM (inactive)"}, {"measurement": "GI50", "setting": "OVCAR-8", "value": "27 µM (inactive)"}, {"measurement": "GI50", "setting": "PC-3", "value": "20.5 µM (inactive)"}, {"measurement": "GI50", "setting": "RPMI-8226", "value": "18.2 µM (inactive)"}, {"measurement": "GI50", "setting": "SK-MEL-2", "value": "16.4 µM (inactive)"}, {"measurement": "GI50", "setting": "SK-MEL-5", "value": "13.9 µM (inactive)"}, {"measurement": "GI50", "setting": "SK-OV-3", "value": "24.8 µM (inactive)"}, {"measurement": "GI50", "setting": "SNB-19", "value": "20.9 µM (inactive)"}, {"measurement": "GI50", "setting": "UACC-257", "value": "22.9 µM (inactive)"}, {"measurement": "GI50", "setting": "UACC-62", "value": "16.1 µM (inactive)"}]}
{"compound": "CCN(CC)c1ccc2cc(C(=O)Nc3cccc4ccccc34)c(=N)oc2c1", "values": [{"measurement": "GI50", "setting": "A549", "value": "75.9 µM (inactive)"}, {"measurement": "GI50", "setting": "ACHN", "value": "> 100 µM (inactive)"}, {"measurement": "GI50", "setting": "CAKI-1", "value": "> 100 µM (inactive)"}, {"measurement": "GI50", "setting": "HCT-15", "value": "> 100", "unit": "µM"}, {"measurement": "GI50", "setting": "HT-29", "value": "> 100 µM (inactive)"}, {"measurement": "GI50", "setting": "MDA-N", "value": "> 100 µM (inactive)"}, {"measurement": "GI50", "setting": "NCI-H226", "value": "> 100 µM (inactive)"}, {"measurement": "GI50", "setting": "NCI/ADR-RES", "value": "> 100 µM (inactive)"}, {"measurement": "GI50", "setting": "OVCAR-5", "value": "> 100 µM (inactive)"}, {"measurement": "GI50", "setting": "OVCAR-8", "value": "> 100 µM (inactive)"}, {"measurement": "GI50", "setting": "PC-3", "value": "> 100 µM (inactive)"}, {"measurement": "GI50", "setting": "RPMI-8226", "value": "> 100 µM (inactive)"}, {"measurement": "GI50", "setting": "SK-MEL-2", "value": "> 100 µM (inactive)"}, {"measurement": "GI50", "setting": "SK-MEL-5", "value": "43.1 µM (inactive)"}, {"measurement": "GI50", "setting": "SK-OV-3", "value": "> 100 µM (inactive)"}, {"measurement": "GI50", "setting": "SNB-19", "value": "52.8 µM (inactive)"}, {"measurement": "GI50", "setting": "UACC-257", "value": "> 100 µM (inactive)"}, {"measurement": "GI50", "setting": "UACC-62", "value": "63.4 µM (inactive)"}]}
